Where “and” joins values, the source holds several entries; their conditions need not be identical. Equal values may be shown once. Inconclusive results and toxic doses are left out. No stated cut-off is given here; in the data, active means T/C of 150% or more; inactive means T/C below 125%.
System: L1210 leukemia ip in BDF1 mice, survival T/C
Assay: NCI In Vivo Anticancer Drug Screen. Data for tumor model L1210 Leukemia (intraperitoneal) in B6D2F1 (BDF1) mice
Settings: higher = longer survival
Outline: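 Transplantable tumor model; survival measured in treated vs vehicle control mice. Value = treated/control.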

[1] = endpoint: mean survival time, dose: 100.0 mg/kg/injection, schedule: Q01DX009 (ip), vehicle: saline
[2] = endpoint: mean survival time, dose: 200.0 mg/kg/injection, schedule: Q01DX009 (ip), vehicle: saline
[3] = endpoint: mean survival time, dose: 100.0 mg/kg/injection, schedule: Q04DX003 (ip), vehicle: saline with Tween-80
[4] = endpoint: mean survival time, dose: 200.0 mg/kg/injection, schedule: Q04DX003 (ip), vehicle: saline with Tween-80
[5] = endpoint: mean survival time, dose: 400.0 mg/kg/injection, schedule: Q04DX003 (ip), vehicle: saline with Tween-80
[6] = endpoint: mean survival time, dose: 100.0 mg/kg/injection, schedule: Q04DX003 (ip), vehicle: Klucel (hydroxypropylcellulose) (HPC)
[7] = endpoint: mean survival time, dose: 200.0 mg/kg/injection, schedule: Q04DX003 (ip), vehicle: Klucel (hydroxypropylcellulose) (HPC)
[8] = endpoint: mean survival time, dose: 400.0 mg/kg/injection, schedule: Q04DX003 (ip), vehicle: Klucel (hydroxypropylcellulose) (HPC)
[9] = endpoint: mean survival time, dose: 100.0 mg/kg/injection, schedule: Q04DX003 (ip), vehicle: saline
[10] = endpoint: mean survival time, dose: 200.0 mg/kg/injection, schedule: Q04DX003 (ip), vehicle: saline
[11] = endpoint: mean survival time, dose: 400.0 mg/kg/injection, schedule: Q04DX003 (ip), vehicle: saline

Measured: T/C

CCNc1cc(Cl)c(C(=O)O)cc1[N+](=O)[O-]
inactive: [1] 116 % of control | [2] 103 % of control | endpoint: mean survival time, dose: 400.0 mg/kg/injection, schedule: Q01DX009 (ip), vehicle: saline 95 % of control

CCC1=CCN2CCC34c5cc(C6(C(=O)OC)CC7CC(CC)CN(CCc8c6[nH]c6ccccc86)C7)c(OC)cc5N(C)C3C(O)(C(=O)OC)C(OC(C)=O)C1C24 (centres undefined)
inactive: endpoint: mean survival time, dose: 0.8 mg/kg/injection, schedule: Q01DX001 (ip), vehicle: saline 100 % of control | endpoint: mean survival time, dose: 1.6 mg/kg/injection, schedule: Q01DX001 (ip), vehicle: saline 100 % of control | endpoint: mean survival time, dose: 3.2 mg/kg/injection, schedule: Q01DX001 (ip), vehicle: saline 101 % of control | endpoint: mean survival time, dose: 6.4 mg/kg/injection, schedule: Q01DX001 (ip), vehicle: saline 97 % of control

O=C(O)c1ccc(OCCOc2ccccc2)c(Cl)c1
inactive: endpoint: mean survival time, dose: 100.0 mg/kg/injection, schedule: Q01DX009 (ip), vehicle: gum acacia 97 % of control | endpoint: mean survival time, dose: 200.0 mg/kg/injection, schedule: Q01DX009 (ip), vehicle: gum acacia 88 % of control | endpoint: mean survival time, dose: 400.0 mg/kg/injection, schedule: Q01DX009 (ip), vehicle: gum acacia 92 % of control

COc1ccc(NC(=O)CCC(=O)O)cc1
inactive: endpoint: mean survival time, dose: 50.0 mg/kg/injection, schedule: Q01DX009 (ip), vehicle: saline with Tween-80 110 % of control | endpoint: mean survival time, dose: 50.0 mg/kg/injection, schedule: Q04DX003 (ip), vehicle: saline with Tween-80 96 % of control | endpoint: mean survival time, dose: 100.0 mg/kg/injection, schedule: Q01DX009 (ip), vehicle: saline with Tween-80 108 % of control | [3] 100 % of control | endpoint: mean survival time, dose: 200.0 mg/kg/injection, schedule: Q01DX009 (ip), vehicle: saline with Tween-80 100 % of control | [4] 100 % of control | endpoint: mean survival time, dose: 400.0 mg/kg/injection, schedule: Q01DX009 (ip), vehicle: saline with Tween-80 107 % of control | [5] 94 % of control

S=C(c1ccccn1)N1CCOCC1
inactive: [6] 90 % of control | [7] 102 % of control | [8] 95 % of control

CCC(CC)(CC)C(OC(=O)c1ccccc1C(=O)O)c1ccccc1 (centres undefined)
inactive: endpoint: mean survival time, dose: 50.0 mg/kg/injection, schedule: Q01DX001 (ip), vehicle: saline 95 % of control | endpoint: mean survival time, dose: 100.0 mg/kg/injection, schedule: Q01DX001 (ip), vehicle: saline 95 % of control | endpoint: mean survival time, dose: 200.0 mg/kg/injection, schedule: Q01DX001 (ip), vehicle: saline 97 % of control | endpoint: mean survival time, dose: 400.0 mg/kg/injection, schedule: Q01DX001 (ip), vehicle: saline 88 % of control

Clc1cc(I)cc(Cl)c1Cl
inactive: endpoint: mean survival time, dose: 100.0 mg/kg/injection, schedule: Q04DX003 (ip), vehicle: acetone 108 % of control | endpoint: mean survival time, dose: 200.0 mg/kg/injection, schedule: Q04DX003 (ip), vehicle: acetone 103 % of control | endpoint: mean survival time, dose: 400.0 mg/kg/injection, schedule: Q04DX003 (ip), vehicle: acetone 91 % of control

CCC(C)C(C#N)(CCN(CC=C(C)C)CC=C(C)C)c1cccc2ccccc12 (centres undefined)
inactive: [6] 96 % of control | [7] 110 % of control | [8] 93 % of control

Nc1ccc(N)cc1
inactive: endpoint: mean survival time, dose: 1.5 mg/kg/injection, schedule: Q01DX009 (ip), vehicle: DMSO 94 % of control | endpoint: mean survival time, dose: 3.0 mg/kg/injection, schedule: Q01DX009 (ip), vehicle: DMSO 92 % of control | endpoint: mean survival time, dose: 5.0 mg/kg/injection, schedule: Q01DX001 (ip), vehicle: saline 98 % of control | endpoint: mean survival time, dose: 5.0 mg/kg/injection, schedule: Q01DX009 (ip), vehicle: saline with Tween-80 100 % of control | endpoint: mean survival time, dose: 5.0 mg/kg/injection, schedule: Q04DX003 (ip), vehicle: saline 103 % of control | endpoint: mean survival time, dose: 6.0 mg/kg/injection, schedule: Q01DX009 (ip), vehicle: DMSO 92 % of control | endpoint: mean survival time, dose: 6.25 mg/kg/injection, schedule: Q01DX009 (ip), vehicle: DMSO 94 % of control | endpoint: mean survival time, dose: 10.0 mg/kg/injection, schedule: Q01DX001 (ip), vehicle: saline 102 % of control | endpoint: mean survival time, dose: 10.0 mg/kg/injection, schedule: Q01DX009 (ip), vehicle: saline with Tween-80 96 % of control | endpoint: mean survival time, dose: 10.0 mg/kg/injection, schedule: Q04DX003 (ip), vehicle: saline 98 % of control | endpoint: mean survival time, dose: 12.5 mg/kg/injection, schedule: Q01DX009 (ip), vehicle: DMSO 89 % of control | endpoint: mean survival time, dose: 20.0 mg/kg/injection, schedule: Q01DX001 (ip), vehicle: saline 106 % of control | endpoint: mean survival time, dose: 20.0 mg/kg/injection, schedule: Q01DX009 (ip), vehicle: saline with Tween-80 99 % of control | endpoint: mean survival time, dose: 20.0 mg/kg/injection, schedule: Q04DX003 (ip), vehicle: saline 97 % of control | endpoint: mean survival time, dose: 40.0 mg/kg/injection, schedule: Q01DX001 (ip), vehicle: saline 106 % of control | endpoint: mean survival time, dose: 100.0 mg/kg/injection, schedule: Q04DX003 (ip), vehicle: DMSO 91 % of control | endpoint: mean survival time, dose: 200.0 mg/kg/injection, schedule: Q04DX003 (ip), vehicle: DMSO 88 % of control

COC1(OC)C2(Cl)C=C(c3ccccc3)C1(Cl)C(Cl)=C2Cl (centres undefined)
inactive: endpoint: mean survival time, dose: 100.0 mg/kg/injection, schedule: Q01DX001 (ip), vehicle: carboxymethylcellulose (CMC) 92 % of control | endpoint: mean survival time, dose: 200.0 mg/kg/injection, schedule: Q01DX001 (ip), vehicle: carboxymethylcellulose (CMC) 97 % of control | endpoint: mean survival time, dose: 400.0 mg/kg/injection, schedule: Q01DX001 (ip), vehicle: carboxymethylcellulose (CMC) 94 % of control

O=C(CCN1CCCC1)c1ccc2ccccc2c1
inactive: endpoint: mean survival time, dose: 25.0 mg/kg/injection, schedule: Q04DX002 (ip), vehicle: saline with Tween-80 97 % of control | endpoint: mean survival time, dose: 50.0 mg/kg/injection, schedule: Q04DX002 (ip), vehicle: saline with Tween-80 97 % of control | endpoint: mean survival time, dose: 100.0 mg/kg/injection, schedule: Q04DX002 (ip), vehicle: saline with Tween-80 100 % of control and 86 % of control

Cc1c(Cl)cc(Cl)c(N)c1Cl
inactive: [3] 100 % of control | [4] 98 % of control | [5] 96 % of control

CC(C)(C)NC(=O)NCc1ccccc1Cl
inactive: endpoint: mean survival time, dose: 100.0 mg/kg/injection, schedule: Q04DX002 (ip), vehicle: Klucel (hydroxypropylcellulose) (HPC) 96 % of control | endpoint: mean survival time, dose: 200.0 mg/kg/injection, schedule: Q04DX002 (ip), vehicle: Klucel (hydroxypropylcellulose) (HPC) 96 % of control | endpoint: mean survival time, dose: 400.0 mg/kg/injection, schedule: Q04DX002 (ip), vehicle: Klucel (hydroxypropylcellulose) (HPC) 100 % of control

CCCC/C=C\C=C\CCCC
inactive: [9] 95 % of control | [10] 103 % of control | [11] 97 % of control

CS(=O)(=O)c1ccc2nnnn2n1
inactive: endpoint: mean survival time, dose: 6.25 mg/kg/injection, schedule: Q04DX003 (ip), vehicle: saline 100 % of control | endpoint: mean survival time, dose: 12.5 mg/kg/injection, schedule: Q04DX003 (ip), vehicle: saline 103 % of control | endpoint: mean survival time, dose: 25.0 mg/kg/injection, schedule: Q04DX003 (ip), vehicle: saline 100 % of control

O=C(O)C1CC(O)CN1 (centres undefined)
inactive: endpoint: mean survival time, dose: 12.5 mg/kg/injection, schedule: Q04DX002 (ip), vehicle: saline 110 % of control and 107 % of control | endpoint: mean survival time, dose: 25.0 mg/kg/injection, schedule: Q04DX002 (ip), vehicle: saline 106 % of control and 97 % of control | endpoint: mean survival time, dose: 50.0 mg/kg/injection, schedule: Q04DX002 (ip), vehicle: saline 100 % of control and 110 % of control | endpoint: median survival time, dose: 25.0 mg/kg/injection, schedule: Q01DX009 (ip), vehicle: saline 102 % of control | endpoint: median survival time, dose: 50.0 mg/kg/injection, schedule: Q01DX009 (ip), vehicle: saline 103 % of control | endpoint: median survival time, dose: 100.0 mg/kg/injection, schedule: Q01DX009 (ip), vehicle: saline 108 % of control | endpoint: median survival time, dose: 200.0 mg/kg/injection, schedule: Q01DX009 (ip), vehicle: saline 112 % of control | endpoint: median survival time, dose: 400.0 mg/kg/injection, schedule: Q01DX009 (ip), vehicle: saline 114 % of control

CCCCCCCCCCCCCCCCS(=O)(=O)N/N=C(/c1ccc(N)cc1Cl)N1CCCCC1
inactive: [6] 86 % of control | [7] 94 % of control | [8] 91 % of control

CN(C)c1ccc(/C=C/c2nc3ccc([N+](=O)[O-])cc3[nH]2)cc1
inactive: endpoint: mean survival time, dose: 50.0 mg/kg/injection, schedule: Q01DX009 (ip), vehicle: Klucel (hydroxypropylcellulose) (HPC) 97 % of control | endpoint: mean survival time, dose: 100.0 mg/kg/injection, schedule: Q01DX009 (ip), vehicle: Klucel (hydroxypropylcellulose) (HPC) 97 % of control | [6] 97 % of control | endpoint: mean survival time, dose: 200.0 mg/kg/injection, schedule: Q01DX009 (ip), vehicle: Klucel (hydroxypropylcellulose) (HPC) 92 % of control | [7] 102 % of control | endpoint: mean survival time, dose: 400.0 mg/kg/injection, schedule: Q01DX009 (ip), vehicle: Klucel (hydroxypropylcellulose) (HPC) 94 % of control | [8] 103 % of control

NCc1ccccc1F
inactive: [1] 100 % of control | [9] 107 % of control | [2] 90 % of control | [10] 100 % of control | [11] 102 % of control

From PubChem BioAssay AID248 (DTP/NCI, 2004)
